These are literature values, as cited in US20110082200A1, “5,6,7-TRIHYDROXYHEPTANOIC ACID AND ANALOGS FOR THE TREATMENT OF OCULAR DISEASES AND DISEASES ASSOCIATED WITH HYPERPROLIFERATIVE AND ANGIOGENIC RESPONSES” (ALCON, INC., priority 2004, published 2011).

The structures appear in SMILES notation.

In one data set the test system is neutrophils. The settings on record: compared with lipoxin A4.
Data set [1] concerns endothelial cell. Conditions: in vitro.
Data set [2] deals with endothelial cell. Conditions: in vitro. This is another data set of the same source.
The test system of data set [3] is VEGF-induced angiogenesis. Conditions: murine chronic granulomatous air pouch model.

For the molecule `COC(=O)CCC[C@H](O)[C@H](O)CO` [Compound 1], the “inhibition of LTB4-induced chemotaxis of neutrophils” value with neutrophils was “as potently as lipoxin A4”.
Consider `CCCCC[C@H](O)[C@H](O)CO` [Compound 2], for which the “inhibition of LTB4-induced chemotaxis of neutrophils” value in the data set on neutrophils is given as “as potently as lipoxin A4”.
Consider `O=C(O)CCC[C@H](O)[C@H](O)/C=C/C=C/C=C\C=C\[C@H](O)COc1ccc(F)cc1` [Lipoxin analog 3], for which the “inhibition of leukotriene D4-induced endothelial cell chemotaxis and proliferation” value in the data set with endothelial cell [1] is recorded as “inhibit”. Further, in the data set with endothelial cell [2], the “inhibition of VEGF-induced endothelial cell chemotaxis and proliferation” value is on record as “inhibit”. Besides, the “inhibition of VEGF-induced angiogenesis” value in data set [3] is reported as “inhibit”.
